Test results reported in US20250319292A1, “MICRONEEDLES AND METHODS FOR TREATING THE SKIN” (THE BRIGHAM AND WOMEN'S HOSPITAL, INC., priority 2021, published 2025).

Assays:
[1] = system: THP-1 cells; test: Cytotoxicity studies of digestion media (TCEP); type: cell-based; details: TCEP 0.1 mM to 100 mM, 10 minutes
Experimental: Human monocyte THP-1 cells (ATTC) were maintained in RPMI 1640 supplemented with 10% FBS, 2 mM L-glutamine, 25 mM HEPES, 100 μg/mL Normocin™ (InvivoGen) and 100 U/mL penicillin and 100 μg/mL streptomycin. Cell lines were maintained in a humidified incubator at 37° C., 5% CO2.
THP-1 cells were incubated with different concentrations of digestion media (TCEP solution in supplemented media), ranging from 0.1 mM to 100 mM, for 10 minutes. Thereafter, digestion media was removed, and cells were stained using the LIVE/DEAD™ fixable Violet Dead Cell Stain Kit (Thermo Fisher Scientific, USA) following the manufacturer's guidelines. Dead cells were analyzed by flow cytometry using a BD LSRFortessa™ flow cytometer.

[2] = system: Tregs; test: CCL22-dependent trans-well migration assay; type: cell-based, C57BL/6 mice; details: 0, 10 and 100 ng/ml, 3 hours, CD3+ T cells
Experimental: Recruitment of Tregs as a function of CCL22 was assessed in a 24-well plate containing a 5 μm-pore polycarbonate Transwell® filter system (Costar Transwell® permeable support #3421). MNs loaded with incremental amounts of CCL22 ([…] and 100 ng) or equivalent dose of soluble CCL22 were added in the receiver wells and incubated at 37° C. for 1 hour. 5×10^5 CD3^+ T cells were magnetically isolated from C57BL/6 mice using mouse T cell isolation kit (EasySep™, #19851) and resuspended in full culture media and added to the top wells. Cells were then incubated at 37° C. and 5% CO2 for 3 hours. Cells in the receiver well were then harvested and stained with Fixed viability dye, anti-CD3, CD4, CD25, and Foxp3 antibodies and analyzed by flow cytometry.
Next, the biological activity of chemokines when loaded in the MNs was examined. Specifically, the ability of CCL22 to mediate Tregs recruitment when delivered using the MN platform through a trans-well migration assay was studied. Briefly, ranging concentrations of CCL22, either MN-doped or soluble, were incubated with CD3^+ T cells, and the number of migrated Tregs was analyzed after 3 hours of incubation by flow cytometry. […] This can stem from the maintenance of a higher gradient of CCL22 when released from the MNs compared to soluble CCL22 (FIG. 3C).

Q: With `O=C(O)CCP(CCC(=O)O)CCC(=O)O` [TCEP, tris (2-carboxyethyl) phosphine] as the molecule, how does the cell viability [1] read?
A: highly biocompatible and did not affect cell viability

B1: soluble CCL22: C-C motif chemokine 22 added in solution, from PeproTech (protein, UniProt O00626 25-93, looked up)
C-C motif chemokine 22: GPYGANMEDSVCCRDYVRYRLPLRVVKHFYWTSDSCPRPGVVLLTFRDKEICADPRVPWVKMILNKLSQ
Q: B1 was tested. Which “Tregs migration as a function of CCL22 concentration” value [2] did it give?
A: dose-dependent increase of Tregs migration
